The source of these data is article PMC7377376, “Drug targeting CYP2E1 for the treatment of early-stage alcoholic steatohepatitis” (PLoS ONE, 2020).

One series concerns CYP2E1. The note with it: cited from earlier work.
The target of series [1] is T1, human cytochrome P450 2E1 (Homo sapiens, UniProt P05181).
T1 construct: purchased BD Biosciences
As to the kind of experiment: Steady-state p-nitrophenol oxidation, CYP2E1 inhibition in SUPERSOMES
Type of series: biochemical. The method, then: Initial velocities of the oxidation of p-nitrophenol (p-NP) to p-nitrocatechol by human cytochrome P450 2E1 were determined by measuring the absorption at 535 nm or 546 nm to determine product formation as described before.
Alternatively, 100 mM HEPES pH 7.6 was additionally used for the enzyme kinetic measurements. A final concentration of either 50 nM enzyme in form of SUPERSOMES™ from BD Biosciences or microsomes in case of cell culture experiments was added. Reaction was initiated by adding 500 μM (enzyme kinetic measurements) or 0.1 mM (cell culture experiments) NADPH after preincubation at 37° C and stopped by adding 20% trichloroacetic acid (TCA) after 30 minutes to ensure linearity of product formation. The protein concentration for the microsomal fraction was determined by Bradford assay to calculate the results expressed as units of specific activity defined as the amount of enzyme that consumes 1 μmol/L of NADPH per hour per microgram of protein. Inhibitor stock solutions were prepared in 0.1% DMSO and diluted to a final DMSO concentration of 0.003% in the reaction mixture at most to avoid enzyme inhibition by this solvent. Inhibitory constants (Ki) were calculated by non-linear fitting of initial velocities. Maximum inhibition could not be achieved since final inhibitor concentrations were limited by DMSO.
Supplementary file pone.0235990.s002.tif: S2 Fig CYP2E1 inhibition by data base inhibitors. To ascertain whether an imidazole containing compound is already commercially available and better suited for development as a drug can-didate, we performed a large virtual library screening of the ZINK database. We found 14,738 hits. The 5,261 commercially available compounds could be classified as 4,710 synthetic and 551 natural molecules. After docking and final scoring process, the seven best synthetic and the three best natural candidates were purchased and tested in vitro for their potential to inhibit CYP2E1 activity. Different concentrations of these compounds dissolved in DMSO were added to 110 μM p-Nitrophenol in 100 mM HEPES buffer pH 7.6 and SUPERSOMES™ with 50 nM human CYP 2E1 to calculate relative activity values. […] 20 μM corresponds to a DMSO volume of 0.02% (v/v). (TIF) Click here for additional data file.

In series [2] the test system is ethanol-fed Wistar rats. In words: Oxidative stress parameters in liver of ethanol-fed rats (Lieber-DeCarli diet). Format: in vivo. The following applies: rat liver. The source says:
(§1) A total of 68 female Wistar rats (Institute of Pharmacology and Biochemistry Breeding House, Minsk, Belarus) aged 80–90 days and weighting 180–200 g at the beginning of the experiments were used in the study. Each rat group (n = 6–8) was housed in a separate cage and had free access to the liquid diet during the full study period. Prior to the study, the animals were habituated for seven days to the cage conditions and experimental handling. The rats were maintained in a controlled experimental environment (20–25°C, 40–50% humidity, 12 h light per day, room with a 12-h light/dark cycle).
(§2) Rats were divided into ten groups characterized by the diet and the test compounds (S1 Table). Group 1 is the first control group in which a normal solid standard diet was fed for 12 weeks. All other groups received the liquid Lieber-DeCarli (LDC) diet (S2 Table), which combines food and drink in a liquid manner. It was prepared by ssniff Spezialdiäten GmbH, Soest. The addition of maltodextrin to this diet should compensate the pure caloric effect of ethanol, whereby 1.77 g maltodextrin replaces 1 g ethanol. The calorie value of both the control and ethanol diets was the same: 35% calories from fat, 11% from carbohydrates, 18% from protein and 36% from ethanol.
(§3) In the first two weeks rats of all groups–with the exception of group 1 –were fed with LDC diet plus maltodextrin in an appropriate amount to adapt the animals to the liquid diet. Group 2 is the second control group in which the isocaloric diet was administered for further 10 weeks until the end of the experiment. […] The test compounds I-ol, I-an and UDCA were dissolved in a 0.8% aqueous HPMC gel to obtain the appropriate concentrations: (1) I-ol with 0.4, 4 and 40 mg/kg b. w. (2) I-an with 0.4, 4 and 40 mg/kg b. w. (3) UDCA with 40 mg/kg b. w. Rats of group 2 and 3 received only HPMC as a placebo. The LDC diets were fed ad libitum and their intake per cage was controlled daily. The corresponding bottles were stored in the cages from 08:00 a. m. until 06:00 p. m. and replaced by drinking water bottles overnight until 08:00 a. m. in the next morning. Every day at the same time, the test compounds or only HPMC were administered intragastrically by oral gavage with an administration volume of 2 ml/kg b. w. After ten weeks of treatment, the rats were anesthetized with an intraperitoneal injection of a 5% pentobarbital solution and then killed by aorta scarification. Their livers were dissected and liver pieces frozen and stored in liquid nitrogen. A part of the liver was fixed for histological investigations. Blood was collected before sacrifice, centrifuged for serum preparation and finally stored in liquid nitrogen.
The generation of reactive oxygen species (ROS) in rat liver was evaluated by NADPH-induced chemiluminescence with amplification by both luminol for the detection of superoxide (SRA) radical anion and lucigenin detecting hydrogen peroxide as described by Müller-Peddinhaus. In short, liver pieces were homogenized in 0.1 M sodium phosphate buffer pH 7.4. The homogenates were centrifuged at 9,000 x g at 0°C and aliquots were used for the measurement. Reduced glutathione (GSH) was determined by a modified Ellman`s method: 0.2 ml of the liver homogenates’ supernatant were added to 1.6 ml of an EDTA-/sodium […] solution. The absorbance was read at […] against blanks. GSH solution—prepared immediately before use—served as a standard. End products of the lipid peroxidation reaction are equivalent to TBARS (thiobarbituric acid-reacting substances) and their concentration was measured according to Buege et al.. The enzymatic activity of cytosolic glutathione peroxidase (GPx) and microsomal glutathione reductase (GR) were determined as described by Buko at al.. Catalase activity was evaluated by spectrophotometric measurement using hydrogen peroxide as a substrate according to Beers et al.. […]

The subject of series [3] is ethanol-fed Wistar rats. As to the kind of experiment: Liver and serum lipid parameters of ethanol-fed rats. Type of series: in vivo, rat.
From the text: as §1, §2, §3
(§4) The serum marker enzyme activities, alanine aminotransferase (ALT), aspartate aminotransferase (AST), alkaline phosphatase (AP) and gamma-glutamyltransferase (γ-GT) as well as triglycerides and bilirubin were measured according to manufacturer’s instructions using standard commercial kits from Lachema (PLIVA-Lachema Diagnostika, Czech Republic). Serum concentrations of leptin, adiponectin and TNF-alpha were analyzed using commercial ELISA test kits: BioCat GmbH (Heidelberg, German) for adiponectin and TNF-alpha, BioVendor Laboratory Medicine Inc. (Brno, Czech Republic) for leptin. Insulin serum concentration was determined by radioimmunoassay using the commercially available kit RIO-insulin-PG-J125 (IBOCH, Minsk, Belarus). Glucose serum concentration was determined by the Accu-Check Active blood glucose testing system from Roche-Diagnostics GmbH (Mannheim, Germany).
Lipids were extracted with a chloroform: methanol mixture (2:1 v/v). Neutral lipids and phospholipids were separated into classes by thin-layer chromatography (TLC). Lipid fractions (triglycerides, cholesterol and its fractions) were measured in extracts from scraped spots by routine methods using the appropriate commercial kits. […]

Series [4] relates to ethanol-fed Wistar rats. As to the kind of experiment: Serum liver enzyme activities of ethanol-fed rats. Format: in vivo, rat.
From the text: as §1, §2, §3, §4

The test system of series [5] is ethanol-fed Wistar rats. In words: Liver histopathology of ethanol-fed rats. Type of series: in vivo, rat. The following applies: I-ol, I-an in their higher concentrations; UDCA 40 mg/kg b.w.; H.E. staining. Here is the method:
as §3
Liver samples were selected randomly, fixed in Bouin`s solution and embedded in paraffin wax. Histological sections were prepared and stained with haematoxylin and eosin. Other liver samples were fixed in a solution containing formaldehyde, paraformaldehyde and glutaraldehyde with a subsequent post-fixation in 1% osmium containing phosphate buffer pH 7.4 for further analysis. Liver tissue was embedded in a mixture of butyl-methyl-metacrylates. Semifine sections of 0.5–1.0 μm were stained with Asur II, methylen blue and basic fuxine.

For series [6] the following is noted: cited from earlier work.
Setting [7] is: literature survey, ref not given.
The mark [8] stands for this setting: average over 0.4/4/40 mg/kg b.w. (UDCA 40 mg/kg), oral, 10 weeks.
The mark [9] stands for this setting: average over doses (UDCA 40 mg/kg).
Setting [10] is: liver, average over doses (UDCA 40 mg/kg).
Setting [11] is: serum, average over doses (UDCA 40 mg/kg).

Like-named read-outs stand apart in the source and are kept apart here.

T1 sequence (P05181 whole entry): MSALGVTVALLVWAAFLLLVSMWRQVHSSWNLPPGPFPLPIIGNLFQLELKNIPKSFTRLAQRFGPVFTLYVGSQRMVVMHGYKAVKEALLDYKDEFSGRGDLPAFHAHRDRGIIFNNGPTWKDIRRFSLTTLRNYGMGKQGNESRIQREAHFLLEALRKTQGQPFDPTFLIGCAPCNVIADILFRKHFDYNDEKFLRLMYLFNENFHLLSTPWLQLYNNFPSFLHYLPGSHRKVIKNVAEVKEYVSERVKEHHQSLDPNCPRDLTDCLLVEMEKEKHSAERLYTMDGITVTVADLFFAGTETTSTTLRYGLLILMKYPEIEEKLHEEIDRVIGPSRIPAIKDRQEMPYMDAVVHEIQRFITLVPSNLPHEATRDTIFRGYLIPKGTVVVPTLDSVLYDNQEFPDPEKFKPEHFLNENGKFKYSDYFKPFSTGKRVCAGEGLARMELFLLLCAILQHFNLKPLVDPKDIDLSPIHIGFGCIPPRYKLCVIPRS

Regarding `C[N+](C)(C)CC(=O)O` [Betaine], in the series on CYP2E1 (setting [7]), the “effect on CYP2E1 activity (in words)” value is recorded as “Betaine reduces CYP2E1 activity only to a minor extend, while attenuating ASH. People with high cholesterol should use betaine anhydrous cautiously”.

In the case of `C[S+](C)[O-]` [DMSO], the IC50 in series [1] (solvent inhibition of CYP2E1) is 0.065 % (v/v).

On to `OCCCCCCCCCCn1ccnc1` [I-decanol, 10-imidazolyl-1-decanol], for which the “inhibitory effect on CYP2E1 (in words)” value in series [1] (human CYP2E1 SUPERSOMES) is “almost identical”.

Take `OCCCCCCCn1ccnc1` [I-heptanol, 7-imidazolyl-1-heptanol]: the “inhibitory effect on CYP2E1 (in words)” value in series [1] (human CYP2E1 SUPERSOMES) is “dramatic decrease in inhibitory performance”.

`OCCCCCCCCCn1ccnc1` [I-nonanol, 9-imidazolyl-1-nonanol]: in series [1] (human CYP2E1 SUPERSOMES), the “inhibitory effect on CYP2E1 (in words)” value was “almost identical”.

In series [1] (human CYP2E1 SUPERSOMES, p-nitrophenol oxidation, competitive model with offset), `C[N+](C)(C)CCOP(=O)([O-])OCCCCCCCCCCCCn1ccnc1` [I-phosphocholine, 12-Imidazolyl-dodecan-1-yl-phosphocholine] had a Ki of 22 µM.

For `C[S+](CC[C@H](N)C(=O)[O-])C[C@H]1O[C@@H](n2cnc3c(N)ncnc32)[C@H](O)[C@@H]1O` (stereo partly drawn) [S-adenosyl-L-methionine (SAM), S-adenosyl-L-methionine], the “effect on CYP2E1 activity (in words)” value in the series on CYP2E1 (setting [7]) is listed as “CYP2E1 activity (SAM is a non-competitive inhibitor), reactive oxygen species, anti-fibrogenic action, clinical trial”.

For `C[S+]([O-])CCCCN=C=S` (stereo not shown) [Sulforaphane], the “effect on CYP2E1 activity (in words)” value in the series on CYP2E1 (setting [7]) is recorded as “Sulforaphane does not inhibit CYP2E1 in the knockin mouse modell”.

Consider `C[C@H](CCC(=O)O)[C@H]1CC[C@H]2[C@@H]3[C@@H](O)C[C@@H]4C[C@H](O)CC[C@]4(C)[C@H]3CC[C@]12C` [UDCA, ursodeoxycholic acid, reference compound], for which the “reduction of ethanol effect on hydrogen peroxide” value with ethanol-fed Wistar rats [2] (I-ol, I-an 0.4/4/40 mg/kg b.w., UDCA 40 mg/kg, oral, 10 weeks) amounted to 46%. Further, the “GPx activity decrease compared to disease group” value in the series with ethanol-fed Wistar rats [2] (UDCA 40 mg/kg b.w.) stood at 21%. Besides, in the series on ethanol-fed Wistar rats [2] (average over 0.4/4/40 mg/kg b.w. (UDCA 40 mg/kg)), the “reduction of ethanol effect on TBARS” value is “no statistic significant reduction”. In the series on ethanol-fed Wistar rats [2] (average over 0.4/4/40 mg/kg b.w. (UDCA 40 mg/kg), daily oral gavage, 10 weeks), the “reduction of ethanol effect on superoxide radical anion (SRA)” value is reported as “no statistic significant reduction”. In addition, in the series on ethanol-fed Wistar rats [2] (setting [8]), the “hydrogen peroxide decrease compared to disease group” value is recorded as 32% and the “reduction of ethanol effect on reduced glutathione (GSH)” value is recorded as “no statistically significant changes”. The “reduction of ethanol effect on glutathione reductase (GR) activity” value with ethanol-fed Wistar rats [2] (setting [9]) is “no statistically significant result”. Further, the “GPx activity below the reference value in healthy animals” value with ethanol-fed Wistar rats [2] (highest concentration (UDCA 40 mg/kg b.w.)) was determined as 28%. For the same molecule, in the series on ethanol-fed Wistar rats [3] (liver, UDCA 40 mg/kg), the “liver cholesterol decrease compared to disease group” value was 11% and the “reduction of ethanol effect on hepatic cholesterol” value stood at 78%. Also, the “reduction of ethanol effect on hepatic triglycerides” value in the series on ethanol-fed Wistar rats [3] (liver, average over 0.4/4/40 mg/kg b.w. (UDCA 40 mg/kg), oral, 10 weeks) was determined as 55%. Further, in the series on ethanol-fed Wistar rats [3] (setting [10]), the “liver phospholipids decrease compared to disease group” value is on record as 20%, the “liver triglycerides decrease compared to disease group” value is 31% and the “reduction of ethanol effect on hepatic phospholipids” value is given as “completely eliminated”. Besides, in the series with ethanol-fed Wistar rats [3] (serum, UDCA 40 mg/kg), the “reduction of ethanol effect on serum LDL cholesterol” value is on record as “no significant effect” and the “reduction of ethanol effect on serum VLDL” value was “no statistically significant reduction”. Further, in the series on ethanol-fed Wistar rats [3] (setting [11]), the “reduction of ethanol effect on serum triglycerides” value is given as 79% and the “serum triglycerides decrease compared to disease group” value worked out at 39%. Besides, the “reduction of ethanol effect on γ-GT activity” value in the series with ethanol-fed Wistar rats [4] (UDCA 40 mg/kg) was determined as 61%. Further, in the series on ethanol-fed Wistar rats [4] (setting [9]), the “ALT activity decrease compared to disease group” value was 33%, the “AP activity decrease compared to disease group” value is recorded as 20%, the “AST activity decrease compared to disease group” value is recorded as 19% and the “reduction of ethanol effect on AST activity” value came out at 83%. For the same molecule, in the series on ethanol-fed Wistar rats [4] (setting [9]), the “γ-GT activity decrease compared to disease group” value was determined as 33%. For the same molecule, in the series with ethanol-fed Wistar rats [4] (on average (UDCA 40 mg/kg)), the “reduction of ethanol effect on alkaline phosphatase (AP) activity” value amounted to 66%. For the same molecule, the “liver morphology (histopathology, in words)” value with ethanol-fed Wistar rats [5] was “reduce the histopathological effects of ethanol in a comparable way”. In addition, the “long-term high-dose safety finding” value in series [6] (28–30 mg/kg/day, patients with ulcerative colitis and PSC) was “increased risk of colorectal neoplasia”. Moreover, the “mortality at maximum follow-up versus no intervention group” value in series [6] (network meta-analysis, alcoholic liver disease) was “higher”.

Silymarin: the “effect on CYP2E1 activity (in words)” value in the series with CYP2E1 is “Has no influence on CYP2E1 activity. Clinical trails with patients having alcoholic liver cirrhosis showed controversial results”.
